# Results as given in patent US20090176786A1, “Benzoylurea Compounds and Use Thereof” (priority 2005, published 2009).
# Like-named read-outs stand apart in the source and are kept apart here.
# Experiments:
# Assay type in all cases: in vivo
# [1] = tested on: Frankliniella occidentalis; assay: Test Example 4: spray on cucumber, control value against Frankliniella occidentalis larvae; settings: 168 h, spray 20 ml/cup on cucumber, 30 larvae, seven days after spraying; for pest or weed control at 12.5 ppm: test concentration 12.5 ppm; for pest or weed control at 50 ppm: test concentration 50 ppm
# Procedure: The obtained preparation was diluted with water so that the active ingredient concentration became to a predetermined concentration to prepare a spray solution for test. […] were planted in polyethylene cups, and were grown until the first true leaf was developed. The spray solution for test prepared above was sprayed at the rate of 20 ml/cup on the cucumber. After the pesticidal solution sprayed onto the cucumber was dried, the first true leaf was cut off and then placed on a filter paper (diameter: 70 mm) containing water in a polyethylene cup (diameter: 110 mm). On the cucumber leaf, 30 larvae of Frankliniella occidentalis were released, and the polyethylene cup was capped. Seven days after spraying, the number of pests surviving on the cucumber leaf was counted, and a control value was calculated by the following equation: Control value(%)={1−(Cb×Tai)/(Cai×Tb)}×100 wherein, each symbol has following meaning: Cb: the number of pests before treatment in a non-treated area Cai: the number of pests at the time of observation in a non-treated area Tb: the number of pests before treatment in a treated-area Tai: the number of pests at the time of observation in a treated-area. […] The test concentrations of the other present compounds were 50 ppm.
# Plutella xylostella = assay: Test Example 2: cabbage root immersion (systemic), dead pest rate of Plutella xylostella larvae; settings: for pest or weed control at 5 ppm / pest or weed control at 25 ppm / pest or weed control at 1 ppm: Plutella xylostella, 120 h; for pest or weed control at 5 ppm: read-out: dead pest rate; for pest or weed control at 1 ppm: test concentration of 1 ppm
# Procedure: In 0.25 mL of a mixture solution of Sorgen TW-20 (manufactured by Daiichi Industries Pharmaceuticals, Co., Ltd.) and acetone (mixture volume ratio; Sorgen TW-20:acetone=1:19), 2.5 mg of the present compound (1), (2), (3), (4), (7), (10), (11), (12), (16), (18), (19), (20), (21), (22), (25), (30), (36), (37), (41), (42), (52), (54), (56), (57), (60), (62), (105) or (109) was dissolved. The solution was diluted with ion-exchanged water so that the active ingredient concentration became to a predetermined concentration to prepare a pesticidal solution for test of the test compound. The root part of cabbages in the fourth leaf period were washed with tap water to remove soils, and then immersed in the pesticidal solution for test. After 5 days from immersion of the root part, the root part was removed, and the leaves and stems were put in a cup (volume; 180 mL). In the cup 10 second-instar larvae of Plutella xylostella were released, and the cup was stored at 24° C. After 5 days, the number of dead pests was counted, and the dead pest rate was calculated by the following equation:
# (§1) Dead pest rate(%)=(the number of dead pests/the number of tested pests)×100
# The test concentrations of the other present compounds were 25 ppm.
# Spondoptela litura = assay: Test Example 3: treated artificial diet (Insecta LF), dead pest rate of Spondoptela litura larvae; settings: 144 h, 2 mL on Insecta LF diet, 5 fourth-instar larvae, after 6 days
# From the text: Ten parts of the present compound (1) to (5), (7) to (13), (18) to (33), (35) to (49), (52) to (56), (58) to (61), (71), (73) to (77), (79), (80), (82), (83), (93), (94), (95), (96), (97), (100) to (109), (111), (112), (115), (117), (119), (121), or (123) to (133), 35 parts of white carbon containing 50 parts of polyoxyethylene alkyl ether sulfate ammonium salt, and 55 parts of water were mixed, and finely ground by a wet grinding method to obtain a preparation. The obtained preparation was diluted with water so that the active ingredient concentration became to 500 ppm to prepare a pesticidal solution for test. On the bottom of a polyethylene cup having a diameter of 5.5 cm, a filter paper having a diameter of 5.5 cm was placed, on which Insecta LF (Nippon Agriculture Industries, Co., Ltd.) sliced in a thickness of 6 mm and further cut half was laid, and to which 2 mL of the above-described pesticidal solution for test was added. After air-dried, 5 fourth-instar larvae of Spondoptela litura were released in the cup, and the cup was capped. After 6 days, the number of dead pests was counted, and the dead pest rate was calculated by the following equation:
# as §1
# [2] = test concentration of 5 ppm, root immersion 5 days, 10 second-instar larvae, after 5 days at 24° C.
# [3] = test concentration 25 ppm, root immersion 5 days, 10 second-instar larvae, after 5 days at 24° C.
# [4] = root immersion 5 days, 10 second-instar larvae, after 5 days at 24° C.
structure (smiles),measurement,setting,value
CN(C(=O)NC(=O)c1c(F)cccc1F)c1ccc(SC(F)(F)F)cc1 [(7)],pest or weed control at 12.5 ppm,[1],100%
same,pest or weed control at 5 ppm,Plutella xylostella; [2],100%
COCN(C(=O)c1c(F)cccc1F)C(=O)N(C)c1ccc(SC(F)(F)F)cc1F [(11)],pest or weed control at 25 ppm,Plutella xylostella; [3],100%
CCSc1ccc(N(C)C(=O)N(C)C(=O)c2c(F)cccc2F)c(F)c1 [(16)],pest or weed control at 25 ppm,Plutella xylostella; [3],100%
CN(C(=O)NC(=O)c1c(F)cccc1F)c1ccc([S+]([O-])C(F)(F)F)cc1F (stereo not shown) [(18)],pest or weed control at 1 ppm,Plutella xylostella; [4],100%
CN(C(=O)c1c(F)cccc1F)C(=O)N(C)c1ccc([S+]([O-])C(F)(F)F)cc1F (stereo not shown) [(19)],pest or weed control at 1 ppm,Plutella xylostella; [4],100%
CN(C(=O)c1c(F)cccc1F)C(=O)N(C)c1ccc(S(=O)(=O)C(F)(F)F)cc1F [(21)],pest or weed control at 1 ppm,Plutella xylostella; [4],100%
CN(C(=O)c1c(F)cccc1F)C(=O)N(C)c1ccc(SC(F)(F)C(F)(F)C(F)(F)F)cc1F [(22)],pest or weed control at 3.2 ppm,[1]; test concentration 3.2 ppm,100%
same,pest or weed control at 5 ppm,Plutella xylostella,100%
CN(C(=O)NC(=O)c1c(F)cccc1Cl)c1ccc(SC(F)(F)C(F)F)cc1F [(23)],pest or weed control at 12.5 ppm,[1],100%
CN(C(=O)NC(=O)c1c(F)cccc1F)c1ccc([S+]([O-])C(F)(F)C(F)F)cc1F (stereo not shown) [(24)],pest or weed control at 12.5 ppm,[1],100%
CN(C(=O)NC(=O)c1c(F)cccc1F)c1ccc(S(=O)(=O)C(F)(F)C(F)F)cc1F [(25)],pest or weed control at 12.5 ppm,[1],100%
same,pest or weed control at 5 ppm,Plutella xylostella; [2],100%
CN(C(=O)NC(=O)c1c(F)cccc1F)c1ccc(SC(F)(F)C(F)(F)C(F)(F)F)cc1F [(28)],pest or weed control at 50 ppm,[1],100%
CN(C(=O)NC(=O)c1c(F)cccc1Cl)c1ccc(SC(F)(F)C(F)(F)C(F)(F)F)cc1F [(29)],pest or weed control at 50 ppm,[1],100%
CN(C(=O)NC(=O)c1c(F)cccc1F)c1ccc(SC(F)(F)C(F)(F)F)cc1F [(30)],pest or weed control at 50 ppm,[1],100%
same,pest or weed control at 5 ppm,Plutella xylostella; [2],100%
CN(C(=O)NC(=O)c1c(F)cccc1F)c1ccc(SC(F)(F)C(F)C(F)(F)F)cc1F (stereo not shown) [(31)],pest or weed control at 50 ppm,[1],100%
CN(C(=O)NC(=O)c1c(F)cccc1F)c1ccc(SC(F)F)cc1Cl [(34)],pest or weed control at 50 ppm,[1],100%
Cc1cc(SC(F)(F)F)ccc1N(C)C(=O)NC(=O)c1c(F)cccc1F [(36)],pest or weed control at 12.5 ppm,[1],100%
same,pest or weed control at 5 ppm,Plutella xylostella; [2],100%
CN(C(=O)NC(=O)c1c(F)cccc1F)c1ccc(C(=O)OC(C)(C)C)cc1F [(37)],dead pest rate,Plutella xylostella; [3],100%
CN(C(=O)c1c(F)cccc1F)C(=O)N(C)c1ccc(S(=O)(=O)C(F)(F)C(F)F)cc1F [(40)],pest or weed control at 12.5 ppm,[1],100%
CCN(C(=O)N(C)C(=O)c1c(F)cccc1F)c1ccc(SC(F)(F)F)cc1F [(41)],pest or weed control at 50 ppm,[1],100%
same,pest or weed control at 25 ppm,Plutella xylostella; [3],100%
Cc1cc(SC(F)(F)F)ccc1N(C)C(=O)N(C)C(=O)c1c(F)cccc1F [(42)],pest or weed control at 25 ppm,Plutella xylostella; [3],100%
CN(C(=O)c1c(F)cccc1Cl)C(=O)N(C)c1ccc(SC(F)(F)C(F)(F)C(F)(F)F)cc1F [(45)],pest or weed control at 50 ppm,[1],100%
CN(C(=O)c1c(F)cccc1F)C(=O)N(C)c1ccc(SC(F)(F)C(F)C(F)(F)F)cc1F (stereo not shown) [(47)],pest or weed control at 50 ppm,[1],100%
Cc1c(SC(F)(F)C(F)(F)F)ccc(N(C)C(=O)N(C)C(=O)c2c(F)cccc2F)c1C [(49)],pest or weed control at 50 ppm,[1],100%
CC(=O)N(C(=O)c1c(F)cccc1F)C(=O)N(C)c1ccc(SC(F)(F)F)cc1F [(52)],pest or weed control at 5 ppm,Plutella xylostella; [2],100%
CN(C(=O)N(C(=O)c1c(F)cccc1F)S(C)(=O)=O)c1ccc(SC(F)(F)F)cc1F [(54)],pest or weed control at 25 ppm,Plutella xylostella; [3],100%
CCN(C(=O)c1c(F)cccc1F)C(=O)N(C)c1ccc(SC(F)(F)F)cc1F [(56)],pest or weed control at 50 ppm,[1],100%
same,pest or weed control at 25 ppm,Plutella xylostella; [3],100%
CN(C(=O)NC(=O)c1c(F)cccc1F)c1ccc(SC(F)F)cc1F [(57)],pest or weed control at 5 ppm,Plutella xylostella; [2],100%
C#CCN(C(=O)c1c(F)cccc1F)C(=O)N(C)c1ccc(SC(F)(F)F)cc1F [(60)],pest or weed control at 25 ppm,Plutella xylostella; [3],100%
CN(C(=O)N(C(=O)c1c(F)cccc1F)C1CC1)c1ccc(SC(F)(F)F)cc1F [(69)],pest or weed control at 50 ppm,[1],100%
CN(C(=O)N(CC1CC1)C(=O)c1c(F)cccc1F)c1ccc(SC(F)(F)F)cc1F [(71)],pest or weed control at 50 ppm,[1],100%
same,pest or weed control at 500 ppm,Spondoptela litura,100%
CSCCN(C(=O)c1c(F)cccc1F)C(=O)N(C)c1ccc(SC(F)(F)F)cc1F [(73)],pest or weed control at 50 ppm,[1],100%
CN(C(=O)N(Cc1ccccn1)C(=O)c1c(F)cccc1F)c1ccc(SC(F)(F)F)cc1F [(76)],pest or weed control at 50 ppm,[1],100%
CN(C(=O)N(C(=O)c1c(F)cccc1F)N1CCOCC1)c1ccc(SC(F)(F)F)cc1F [(79)],pest or weed control at 500 ppm,Spondoptela litura,100%
CN(C(=O)N(CCN1CCOCC1)C(=O)c1c(F)cccc1F)c1ccc(SC(F)(F)F)cc1F [(80)],pest or weed control at 500 ppm,Spondoptela litura,100%
CN(C(=O)NC(=O)c1c(Cl)cccc1Cl)c1ccc(SC(F)(F)F)cc1F [(95)],pest or weed control at 500 ppm,Spondoptela litura,100%
CN(C(=O)c1c(Cl)cccc1Cl)C(=O)N(C)c1ccc(SC(F)(F)F)cc1F [(96)],pest or weed control at 500 ppm,Spondoptela litura,100%
CN(C(=O)c1c(F)cccc1F)C(=O)N(C)c1ccc(SC(F)(F)F)cc1Cl [(104)],pest or weed control at 50 ppm,[1],100%
Cc1cc(SC(F)(F)C(F)(F)F)ccc1N(C)C(=O)NC(=O)c1c(F)cccc1F [(105)],pest or weed control at 50 ppm,[1],100%
same,pest or weed control at 25 ppm,Plutella xylostella; [3],100%
Cc1cc(SC(F)(F)C(F)(F)F)ccc1N(C)C(=O)N(C)C(=O)c1c(F)cccc1F [(106)],pest or weed control at 50 ppm,[1],100%
CN(C(=O)NC(=O)c1c(F)cccc1F)c1ccc(SC(F)(F)C(F)(F)F)cc1Cl [(107)],pest or weed control at 50 ppm,[1],100%
CN(C(=O)c1c(F)cccc1F)C(=O)N(C)c1ccc(SC(F)(F)C(F)(F)F)cc1Cl [(108)],pest or weed control at 50 ppm,[1],100%
CN(C(=O)NC(=O)c1c(F)cccc1F)c1ccc(SC(F)(F)C(F)OC(F)(F)F)cc1F (stereo not shown) [(109)],pest or weed control at 50 ppm,[1],100%
same,pest or weed control at 25 ppm,Plutella xylostella; [3],100%
CN(C(=O)c1c(F)cccc1F)C(=O)N(C)c1ccc(SC(F)(F)C(F)OC(F)(F)F)cc1F (stereo not shown) [(110)],pest or weed control at 50 ppm,[1],100%
CN(C(=O)c1c(F)cccc1F)C(=O)N(C)c1ccc(SC(F)(F)F)cc1 [(117)],pest or weed control at 50 ppm,[1],100%
same,pest or weed control at 500 ppm,Spondoptela litura,100%
COc1cccc(CN(C(=O)c2c(F)cccc2F)C(=O)N(C)c2ccc(SC(F)(F)F)cc2F)c1 [(119)],pest or weed control at 500 ppm,Spondoptela litura,100%
CSc1ccc(N(C)C(=O)NC(=O)c2c(F)cccc2F)c(C(F)(F)F)c1 [(121)],pest or weed control at 500 ppm,Spondoptela litura,100%
Cc1cc(SC(F)(F)C(F)F)ccc1N(C)C(=O)N(C)C(=O)c1c(F)cccc1F [(131)],pest or weed control at 50 ppm,[1],100%
